{"source": "paper PMC9724349", "about": "“Discovery of a pyrano[2,3-b]pyridine derivative YX-2102 as a cannabinoid receptor 2 agonist for alleviating lung fibrosis” (Journal of Translational Medicine, 2022)", "target": "T1, cannabinoid receptor 2 (CB2R) (Homo sapiens, UniProt P34972)", "T1 construct": "gene CNR2", "T1 sequence (P34972 whole entry)": "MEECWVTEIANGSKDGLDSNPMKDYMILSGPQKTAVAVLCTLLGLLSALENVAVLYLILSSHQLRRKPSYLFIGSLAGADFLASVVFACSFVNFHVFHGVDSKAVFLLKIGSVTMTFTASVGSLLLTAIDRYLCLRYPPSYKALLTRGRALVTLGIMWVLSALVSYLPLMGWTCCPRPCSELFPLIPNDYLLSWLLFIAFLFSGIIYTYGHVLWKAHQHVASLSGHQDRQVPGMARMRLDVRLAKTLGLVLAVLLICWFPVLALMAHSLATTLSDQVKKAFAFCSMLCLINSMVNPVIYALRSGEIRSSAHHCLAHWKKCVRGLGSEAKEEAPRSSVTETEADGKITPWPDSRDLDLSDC", "test": "radioligand binding assay, [3H]CP […] displacement"}
{"smiles": "CCOC(=O)C1=CC(c2cccc(C)c2)C2CCC(CC(=O)c3ccccc3)OC2N1S(=O)(=O)c1ccc(C)cc1", "note": "(stereo not shown) [YX-2102]", "values": [{"measurement": "Ki", "result": 0.35, "unit": "µM"}]}
